Laboratory results taken from patent publication US9464063B2, “Benzo [B] [1,4] oxazin derivatives as calcium sensing receptor modulators” (LUPIN ATLANTIS HOLDINGS SA, priority 2011, dated 2016).
Where a name gives a salt, the structure may show the parent alone.

Target: T1, Calcium sensing receptor (hCaSR) (Homo sapiens, UniProt P41180)
T1 construct: expressed in transfected cells
T1 sequence (P41180 20-1078): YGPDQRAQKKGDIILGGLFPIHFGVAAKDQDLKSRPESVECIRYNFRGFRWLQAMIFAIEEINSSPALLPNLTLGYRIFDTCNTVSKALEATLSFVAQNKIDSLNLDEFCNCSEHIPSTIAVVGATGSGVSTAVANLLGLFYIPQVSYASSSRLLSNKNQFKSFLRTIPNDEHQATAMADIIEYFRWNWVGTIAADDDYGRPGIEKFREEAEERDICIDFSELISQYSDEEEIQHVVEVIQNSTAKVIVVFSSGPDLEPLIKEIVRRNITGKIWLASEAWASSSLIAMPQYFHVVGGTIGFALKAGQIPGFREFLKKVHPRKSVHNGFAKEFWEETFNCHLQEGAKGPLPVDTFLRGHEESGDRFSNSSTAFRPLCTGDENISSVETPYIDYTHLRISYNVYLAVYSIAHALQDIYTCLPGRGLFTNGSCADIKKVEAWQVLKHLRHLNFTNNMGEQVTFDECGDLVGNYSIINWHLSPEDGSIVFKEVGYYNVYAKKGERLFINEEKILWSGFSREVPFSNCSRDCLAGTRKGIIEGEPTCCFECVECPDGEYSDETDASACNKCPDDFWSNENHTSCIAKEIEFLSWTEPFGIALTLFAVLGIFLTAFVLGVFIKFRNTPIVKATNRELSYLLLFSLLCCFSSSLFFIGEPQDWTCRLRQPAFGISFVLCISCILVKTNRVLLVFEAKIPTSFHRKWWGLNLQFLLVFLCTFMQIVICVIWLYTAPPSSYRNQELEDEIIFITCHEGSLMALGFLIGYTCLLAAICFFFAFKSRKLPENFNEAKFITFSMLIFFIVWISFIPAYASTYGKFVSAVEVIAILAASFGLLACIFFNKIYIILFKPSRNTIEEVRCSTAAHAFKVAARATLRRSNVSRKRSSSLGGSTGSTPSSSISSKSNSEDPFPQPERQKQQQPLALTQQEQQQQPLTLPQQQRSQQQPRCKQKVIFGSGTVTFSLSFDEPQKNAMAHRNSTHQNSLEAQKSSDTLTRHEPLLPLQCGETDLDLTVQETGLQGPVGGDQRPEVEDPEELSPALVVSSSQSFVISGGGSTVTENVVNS
Assay: In-vitro assay of calcimimetics through modulation of calcium sensing receptor: increase in intracellular calcium [Ca2+]i, FLIPR
Type: cell-based
Details: stably transfected HEK293 cells expressing hCaSR; Fluo4NW dye; 0.3 mM CaCl2; 8-point assay; read-out: EC50 Range
Experimental: In-Vitro Assay Method of Calcimemtics Through Modulation of Calcium Sensing Receptor (CaSR):
The ability of the compounds to modulate Calcium sensing receptor is determined by measuring an increase in intracellular calcium [Ca^2+]i. Stably transfected HEK293 cells expressing hCaSR_pTriEx-3 hygro vector are developed. Cells are grown overnight on a 96-well plate to 80% confluency in Ham's F12 containing 20% FBS at 37° C., 5% CO2. Subsequently, cells are washed extensively with 20 mM HEPES buffer containing 126 mM NaCl, 1 mM MgCl2 and 4 mM KCl to remove serum components that might interfere with the assay. Cells are loaded with calcium sensing Fluo4NW dye in HEPES base buffer containing 0.1% BSA and 1 mg/ml glucose for 30 minutes to measure changes in intracellular calcium. The activities of the compounds are measured in FLIPR using 0.3 mM CaCl2 in 20 mM HEPES base buffer. The effectiveness of the compound to modulate receptor activity is determined by calculating the EC50 responses for that compound in an 8-point assay and plotted using GraphPad Prism 5.

| SMILES | EC50 [nM] |
| --- | --- |
| COC(=O)c1ccc(N2CC(CN[C@H](C)c3cccc4ccccc34)Oc3ccccc32)cc1 (single isomer, unassigned) [Example 2a, hydrochloride] | 50 to 200 |
| COC(=O)c1ccc(N2CC(CN[C@H](C)c3cccc4ccccc34)Oc3ccccc32)cc1 (single isomer, unassigned) [Example 2b, hydrochloride] | 20 to 50 |
| CCOC(=O)c1c(C)ccc(N2CC(CN[C@H](C)c3cccc4ccccc34)Oc3ccccc32)c1C (single isomer, unassigned) [Example 24b] | 20 to 50 |
| COC(=O)c1cc(N2CC(CN[C@H](C)c3cccc4ccccc34)Oc3ccccc32)ccc1C (single isomer, unassigned) [Example 31a] | 20 to 50 |
| COc1ccc(C(=O)O)cc1N1CC(CN[C@H](C)c2cccc3ccccc23)Oc2ccccc21 (single isomer, unassigned) [Example 55a, hydrochloride] | 50 to 200 |
| Cc1c(C(=O)O)cccc1N1CC(CN[C@H](C)c2cccc3ccccc23)Oc2ccccc21 (single isomer, unassigned) [Example 58a, hydrochloride] | 20 to 50 |
| C[C@@H](NCC1CN(c2ccc(C(F)(F)F)c(C(=O)O)c2)c2ccccc2O1)c1cccc2ccccc12 (single isomer, unassigned) [Example 60a, hydrochloride] | 20 to 50 |
| COc1ccc(N2CC(CN[C@H](C)c3cccc4ccccc34)Oc3ccccc32)cc1C(=O)O (single isomer, unassigned) [Example 67b, hydrochloride] | 50 to 200 |
| C[C@@H](NCC1CN(c2cccc(CCC(=O)O)c2)c2ccccc2O1)c1cccc2ccccc12 (single isomer, unassigned) [Example 68b, hydrochloride] | 50 to 200 |
| Cc1ccc(N2CC(CN[C@H](C)c3cccc4ccccc34)Oc3ccccc32)c(C)c1C(=O)O (single isomer, unassigned) [Example 70b, hydrochloride] | < 20 |
| Cc1ccc(N2CC(CN[C@H](C)c3cccc4ccccc34)Oc3ccccc32)cc1C(=O)NCC(=O)O (single isomer, unassigned) [Example 79b, hydrochloride] | < 20 |
| Cc1ccc(N2C(=O)C(CN[C@H](C)c3cccc4ccccc34)Oc3ccccc32)cc1C(=O)O (single isomer, unassigned) [Example 87b, hydrochloride] | 20 to 50 |
| Cc1ccc(N2CC(CCN[C@H](C)c3cccc4ccccc34)Oc3ccccc32)cc1C(=O)O (single isomer, unassigned) [Example 133b, hydrochloride] | < 20 |
| Cc1ccc(N2CC(CCN[C@H](C)c3cccc4ccccc34)Oc3c(F)cccc32)cc1C(=O)O (single isomer, unassigned) [Example 159a, hydrochloride] | 20 to 50 |
| C[C@@H](NCCC1CN(c2ccc(OCC(=O)O)cc2)c2ccc(F)cc2O1)c1cccc2ccccc12 (single isomer, unassigned) [Example 161a, hydrochloride] | < 20 |
| C[C@@H](NCCC1CN(c2ccc(OCC(=O)O)cc2)c2cccc(F)c2O1)c1cccc2ccccc12 (single isomer, unassigned) [Example 164a, hydrochloride] | < 20 |
| Cc1ccc(N2CC(CCN[C@H](C)c3cccc4ccccc34)Oc3ccc(F)cc32)cc1C(=O)O (single isomer, unassigned) [Example 166a, hydrochloride] | < 20 |
| C[C@@H](NCCC1CN(c2cccc(C(=O)O)c2)c2cc(F)ccc2O1)c1cccc2ccccc12 (single isomer, unassigned) [Example 167b] | 20 to 50 |
| C[C@@H](NCCC1CN(c2ccc(OCC(=O)O)cc2)c2cc(F)ccc2O1)c1cccc2ccccc12 (single isomer, unassigned) [Example 168a] | < 20 |
| C[C@@H](NCCC1CN(c2cccc(OCC(=O)O)c2)c2cc(F)ccc2O1)c1cccc2ccccc12 (single isomer, unassigned) [Example 169a, hydrochloride] | < 20 |
| C[C@@H](NCCC1CN(c2cccc(OCC(=O)O)c2)c2c(F)cccc2O1)c1cccc2ccccc12 (single isomer, unassigned) [Example 171a, hydrochloride] | < 20 |
| C[C@@H](NCC1CN(c2ccc(C(=O)O)cc2)c2ccccc2O1)c1cccc2ccccc12 (stereo partly drawn) [Example 6, 4-(2-((((R)-1-(Naphthalen-1-yl)ethyl)amino)methyl)-2H-benzo[b][1,4]oxazin-4(3H)-yl)benzoic acid hydrochloride] | 50 to 200 |
| C[C@@H](NCC1CN(c2cccc(C(=O)O)c2)c2ccccc2O1)c1cccc2ccccc12 (stereo partly drawn) [Example 41, 3-(2-((((R)-1-(Naphthalen-1-yl)ethyl)amino)methyl)-2H-benzo[b][1,4]oxazin-4(3H)-yl)benzoic acid hydrochloride] | 20 to 50 |
| C[C@@H](NCC1CN(c2ccc(CCC(=O)O)cc2)c2ccccc2O1)c1cccc2ccccc12 (stereo partly drawn) [Example 48, 3-(4-(2-((((R)-1-(naphthalen-1-yl)ethyl)amino)methyl)-2H-benzo [b][1,4]oxazin-4(3H)-yl)phenyl)propanoic acid] | 50 to 200 |

Results, then the compound that gave them:

| EC50 [nM] | SMILES |
| --- | --- |
| < 20 | COC(=O)c1cc(N2CC(CN[C@H](C)c3cccc4ccccc34)Oc3ccccc32)ccc1C (single isomer, unassigned) [Example 31b] |
| 50 to 200 | Cc1cc(C(=O)O)cc(N2CC(CN[C@H](C)c3cccc4ccccc34)Oc3ccccc32)c1 (single isomer, unassigned) [Example 62a, hydrochloride] |
| < 20 | C[C@@H](NCC1CN(c2ccc(C(=O)O)c(C(F)(F)F)c2)c2ccccc2O1)c1cccc2ccccc12 (single isomer, unassigned) [Example 64b, hydrochloride] |
| 20 to 50 | C[C@@H](NCC1CN(c2ccc(O)c(C(=O)O)c2)c2ccccc2O1)c1cccc2ccccc12 (single isomer, unassigned) [Example 66a, hydrochloride] |
| < 20 | C[C@@H](NCC1CN(c2ccc(O)c(C(=O)O)c2)c2ccccc2O1)c1cccc2ccccc12 (single isomer, unassigned) [Example 66b, hydrochloride] |
| < 20 | Cc1ccc(N2CC(CN[C@H](C)c3cccc4ccccc34)Oc3ccccc32)cc1C(=O)O (single isomer, unassigned) [Example 71b, hydrochloride] |
| < 20 | Cc1cc(N2CC(CN[C@H](C)c3cccc4ccccc34)Oc3ccccc32)ccc1C(=O)O (single isomer, unassigned) [Example 73b, hydrochloride] |
| 50 to 200 | C[C@@H](NCC1CN(c2ccc(Cl)c(C(=O)O)c2)c2ccccc2O1)c1cccc2ccccc12 (single isomer, unassigned) [Example 75b, hydrochloride] |
| < 20 | Cc1ccc(N2CC(CN[C@H](C)c3cccc4ccccc34)Oc3ccccc32)cc1OCC(=O)O (single isomer, unassigned) [Example 76a, hydrochloride] |
| 50 to 200 | Cc1ccc(N2CC(CN[C@H](C)c3cccc4ccccc34)Oc3ccccc32)cc1OC(C)(C)C(=O)O (single isomer, unassigned) [Example 77a, hydrochloride] |
| 50 to 200 | Cc1ccc(N2CC(C)(CN[C@H](C)c3cccc4ccccc34)Oc3ccccc32)cc1C(=O)O (single isomer, unassigned) [Example 86a, hydrochloride] |
| < 20 | C[C@@H](NCCC1CN(c2cccc(C(=O)O)c2)c2cccc(F)c2O1)c1cccc2ccccc12 (single isomer, unassigned) [Example 160a, hydrochloride] |
| < 20 | C[C@@H](NCCC1CN(c2cccc(C(=O)O)c2)c2cc(F)ccc2O1)c1cccc2ccccc12 (single isomer, unassigned) [Example 167a] |
| < 20 | C[C@@H](NCCC1CN(c2ccc(OCC(=O)O)cc2)c2c(F)cccc2O1)c1cccc2ccccc12 (single isomer, unassigned) [Example 172a, hydrochloride] |
